From PubChem BioAssay AID256 (DTP/NCI, 2004)
Several values for one entry are separate records, joined by “and”; a condition that tells them apart may be missing. Equal entries are not always repeated. Toxic doses and inconclusive results are not listed. Rule for the calls: active = survival T/C of 150% or more; inactive = T/C below 125% in these data.

Test system: CD2F1 mice, L1210 leukemia ip, survival T/C
Experiment: NCI In Vivo Anticancer Drug Screen. Data for tumor model L1210 Leukemia (intraperitoneal) in CD2F1 (CDF1) mice
Conditions: higher = longer survival
In short: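 Ratio T/C, where T is the treated-group value and C the vehicle-dosed control value, from mice implanted with a transplantable tumor.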

[1] = endpoint: mean survival time, dose: 50.0 mg/kg/injection, schedule: Q04DX002 (ip), vehicle: saline with Tween-80
[2] = endpoint: mean survival time, dose: 25.0 mg/kg/injection, schedule: Q01DX009 (ip), vehicle: saline with Tween-80
[3] = endpoint: mean survival time, dose: 50.0 mg/kg/injection, schedule: Q01DX009 (ip), vehicle: saline with Tween-80
[4] = endpoint: mean survival time, dose: 100.0 mg/kg/injection, schedule: Q01DX009 (ip), vehicle: saline with Tween-80
[5] = endpoint: mean survival time, dose: 100.0 mg/kg/injection, schedule: Q04DX003 (ip), vehicle: saline with Tween-80
[6] = endpoint: mean survival time, dose: 200.0 mg/kg/injection, schedule: Q04DX003 (ip), vehicle: saline with Tween-80
[7] = endpoint: mean survival time, dose: 400.0 mg/kg/injection, schedule: Q04DX003 (ip), vehicle: saline with Tween-80
[8] = endpoint: mean survival time, dose: 200.0 mg/kg/injection, schedule: Q01DX009 (ip), vehicle: saline with Tween-80
[9] = endpoint: mean survival time, dose: 400.0 mg/kg/injection, schedule: Q01DX009 (ip), vehicle: saline with Tween-80
[10] = endpoint: mean survival time, dose: 100.0 mg/kg/injection, schedule: Q01DX001 (ip), vehicle: saline with Tween-80
[11] = endpoint: mean survival time, dose: 200.0 mg/kg/injection, schedule: Q01DX001 (ip), vehicle: saline with Tween-80
[12] = endpoint: mean survival time, dose: 400.0 mg/kg/injection, schedule: Q01DX001 (ip), vehicle: saline with Tween-80
[13] = endpoint: mean survival time, dose: 100.0 mg/kg/injection, schedule: Q04DX002 (ip), vehicle: saline with Tween-80
[14] = endpoint: mean survival time, dose: 200.0 mg/kg/injection, schedule: Q04DX002 (ip), vehicle: saline with Tween-80

Measured: T/C

COc1ccc2c(ccc3oc([N+](=O)[O-])cc32)c1
inactive: endpoint: median survival time, dose: 6.25 mg/kg/injection, schedule: Q01DX009 (ip), vehicle: saline with Tween-80 105 % of control | endpoint: median survival time, dose: 12.5 mg/kg/injection, schedule: Q01DX009 (ip), vehicle: saline with Tween-80 105 % of control | endpoint: median survival time, dose: 25.0 mg/kg/injection, schedule: Q01DX009 (ip), vehicle: saline with Tween-80 105 % of control | endpoint: median survival time, dose: 50.0 mg/kg/injection, schedule: Q01DX009 (ip), vehicle: saline with Tween-80 105 % of control | endpoint: median survival time, dose: 100.0 mg/kg/injection, schedule: Q01DX009 (ip), vehicle: saline with Tween-80 107 % of control | endpoint: median survival time, dose: 200.0 mg/kg/injection, schedule: Q01DX009 (ip), vehicle: saline with Tween-80 92 % of control

CCCCCCCCCCCCCCCCCC[N+](C)(C)C (tested in a mixture with another compound)
inactive: endpoint: mean survival time, dose: 1.5 mg/kg/injection, schedule: Q01DX009 (ip), vehicle: saline with Tween-80 100 % of control | endpoint: mean survival time, dose: 3.0 mg/kg/injection, schedule: Q01DX009 (ip), vehicle: saline with Tween-80 94 % of control | endpoint: mean survival time, dose: 6.0 mg/kg/injection, schedule: Q01DX009 (ip), vehicle: saline with Tween-80 94 % of control

O=C1C=CC(=O)C2C3C=CC(C/C=C\C3)C12 (configuration not stated)
inactive: endpoint: mean survival time, dose: 12.5 mg/kg/injection, schedule: Q04DX002 (ip), vehicle: saline with Tween-80 105 % of control | endpoint: mean survival time, dose: 25.0 mg/kg/injection, schedule: Q04DX002 (ip), vehicle: saline with Tween-80 94 % of control | [1] 94 % of control

CC(Cc1ccccc1)NC(N)=O (configuration not stated)
inactive: endpoint: mean survival time, dose: 12.5 mg/kg/injection, schedule: Q01DX009 (ip), vehicle: saline with Tween-80 100 % of control | [2] 97 % of control | [3] 92 % of control

CNC(C(=O)O)c1ccccc1 (configuration not stated)
inactive: [2] 101 % of control | [3] 100 % of control | [4] 92 % of control and 94 % of control | [5] 92 % of control | [6] 101 % of control | [7] 89 % of control

CCOc1ccc(/C=C/[N+](=O)[O-])cc1
inactive: [4] 114 % of control | [5] 104 % of control | [8] 89 % of control | [6] 98 % of control | [7] 111 % of control

COc1ccc2c(Nc3ccc(NS(C)(=O)=O)cc3)c3ccccc3nc2c1
inactive: [2] 100 % of control | [3] 86 % of control | [5] 120 % of control | endpoint: mean survival time, dose: 150.0 mg/kg/injection, schedule: Q04DX003 (ip), vehicle: saline with Tween-80 94 % of control

O=C1C(Cl)=C(c2ccccc2)C(=O)C(Cl)=C1c1ccccc1
inactive: endpoint: mean survival time, dose: 50.0 mg/kg/injection, schedule: Q04DX003 (ip), vehicle: saline with Tween-80 103 % of control | [5] 109 % of control | [6] 107 % of control

CCOC(=O)NC(NC(=O)OCC)C(Br)(Br)Br
inactive: endpoint: mean survival time, dose: 200.0 mg/kg/injection, schedule: Q01DX001 (ip), vehicle: Klucel (hydroxypropylcellulose) (HPC) 103 % of control | endpoint: mean survival time, dose: 400.0 mg/kg/injection, schedule: Q01DX001 (ip), vehicle: Klucel (hydroxypropylcellulose) (HPC) 95 % of control

CCOC(=O)C(C(=O)c1ccccc1)C(c1ccccc1)C(C(=O)OCC)C(=O)c1ccccc1 (configuration not stated)
inactive: [4] 94 % of control | [5] 93 % of control | [8] 94 % of control | [6] 90 % of control | [9] 100 % of control | [7] 98 % of control

C=C[Si](C=C)(C=C)C=C
inactive: endpoint: mean survival time, dose: 100.0 mg/kg/injection, schedule: Q01DX001 (ip), vehicle: saline 101 % of control | endpoint: mean survival time, dose: 200.0 mg/kg/injection, schedule: Q01DX001 (ip), vehicle: saline 104 % of control | endpoint: mean survival time, dose: 400.0 mg/kg/injection, schedule: Q01DX001 (ip), vehicle: saline 107 % of control

O=C1/C(=C/c2ccccc2)CCSc2ccccc21
inactive: [10] 90 % of control | [11] 94 % of control | [12] 90 % of control

O=C(c1ccc([N+](=O)[O-])cc1)n1ncc2ccccc21
inactive: endpoint: median survival time, dose: 25.0 mg/kg/injection, schedule: Q04DX002 (ip), vehicle: saline with Tween-80 100 % of control | endpoint: median survival time, dose: 50.0 mg/kg/injection, schedule: Q04DX002 (ip), vehicle: saline with Tween-80 100 % of control | endpoint: median survival time, dose: 100.0 mg/kg/injection, schedule: Q04DX002 (ip), vehicle: saline with Tween-80 100 % of control | endpoint: median survival time, dose: 200.0 mg/kg/injection, schedule: Q04DX002 (ip), vehicle: saline with Tween-80 100 % of control

CCOc1cc(NCCCN)c2nc(OCc3ccccc3)ccc2c1
inactive: endpoint: mean survival time, dose: 75.0 mg/kg/injection, schedule: Q01DX001 (ip), vehicle: saline 96 % of control

c1ccc(-c2oc(-c3ccccc3)c3c(-c4ccccc4)cccc23)cc1
inactive: [1] 90 % of control | [13] 87 % of control | [14] 87 % of control

COc1cc2c(cc1OCc1ccccc1)NC(=O)C2
inactive: [10] 91 % of control | [12] 86 % of control

O=c1oc2ccccc2c2ccccc12
inactive: [13] 108 % of control | [14] 101 % of control | endpoint: mean survival time, dose: 400.0 mg/kg/injection, schedule: Q04DX002 (ip), vehicle: saline with Tween-80 101 % of control

OCC1OC(n2cnc3c(Cl)nccc32)C(O)C1O (configuration not stated)
inactive: endpoint: median survival time, dose: 9.63 mg/kg/injection, schedule: Q01DX005 (ip), vehicle: saline 100 % of control | endpoint: median survival time, dose: 19.25 mg/kg/injection, schedule: Q01DX005 (ip), vehicle: saline 104 % of control | endpoint: median survival time, dose: 38.5 mg/kg/injection, schedule: Q01DX005 (ip), vehicle: saline 94 % of control | endpoint: median survival time, dose: 77.0 mg/kg/injection, schedule: Q01DX005 (ip), vehicle: saline 108 % of control | endpoint: median survival time, dose: 154.0 mg/kg/injection, schedule: Q01DX005 (ip), vehicle: saline 101 % of control

O=c1cc2cccccc-2cc1O
inactive: endpoint: mean survival time, dose: 5.0 mg/kg/injection, schedule: Q01DX001 (ip), vehicle: saline 103 % of control | endpoint: mean survival time, dose: 10.0 mg/kg/injection, schedule: Q01DX001 (ip), vehicle: saline 97 % of control | endpoint: mean survival time, dose: 20.0 mg/kg/injection, schedule: Q01DX001 (ip), vehicle: saline 101 % of control | endpoint: mean survival time, dose: 20.0 mg/kg/injection, schedule: Q04DX003 (ip), vehicle: saline with Tween-80 97 % of control | endpoint: mean survival time, dose: 40.0 mg/kg/injection, schedule: Q01DX001 (ip), vehicle: saline 103 % of control | endpoint: mean survival time, dose: 40.0 mg/kg/injection, schedule: Q04DX003 (ip), vehicle: saline with Tween-80 97 % of control | endpoint: mean survival time, dose: 80.0 mg/kg/injection, schedule: Q01DX001 (ip), vehicle: saline 97 % of control

COc1cccc(OC)c1C(c1c(OC)cccc1OC)c1c(OC)cccc1OC
inactive: [4] 98 % of control | [8] 103 % of control | [9] 102 % of control

CCOC(=O)C1CC=CCC1C(=O)OCC (configuration not stated)
inactive: endpoint: mean survival time, dose: 35.0 mg/kg/injection, schedule: Q04DX003 (ip), vehicle: other 111 % of control | endpoint: mean survival time, dose: 65.0 mg/kg/injection, schedule: Q04DX003 (ip), vehicle: other 94 % of control | endpoint: mean survival time, dose: 100.0 mg/kg/injection, schedule: Q04DX003 (ip), vehicle: other 103 % of control | endpoint: mean survival time, dose: 150.0 mg/kg/injection, schedule: Q04DX003 (ip), vehicle: other 100 % of control

CCC(O)C[As](=O)(O)c1cccc(Cl)c1 (configuration not stated)
inactive: endpoint: mean survival time, dose: 0.39 mg/kg/injection, schedule: Q01DX009 (ip), vehicle: saline 95 % of control | endpoint: mean survival time, dose: 0.78 mg/kg/injection, schedule: Q01DX009 (ip), vehicle: saline 97 % of control | endpoint: mean survival time, dose: 1.56 mg/kg/injection, schedule: Q01DX009 (ip), vehicle: saline 103 % of control | endpoint: mean survival time, dose: 3.13 mg/kg/injection, schedule: Q01DX009 (ip), vehicle: saline 114 % of control

Cc1ccc(S(=O)(=O)O/N=C2/CCC(C)(C)c3ccccc32)cc1
inactive: [4] 102 % of control | [5] 102 % of control | [8] 102 % of control | [6] 103 % of control | [9] 94 % of control | [7] 96 % of control

COc1cc(C=C(c2ccc(N(C)C)cc2)c2ccc(N(C)C)cc2)c(OC)c2ccccc12
inactive: [10] 102 % of control | [13] 90 % of control | [11] 101 % of control | [14] 87 % of control | [12] 90 % of control

CCOc1cc(/C=N/NC(=O)C[n+]2ccccc2)ccc1O
inactive: [2] 99 % of control | [3] 103 % of control | [4] 99 % of control
